The source of these data is PubChem BioAssay (NCI).

Among the test systems are OVCAR-5 ovarian; SF-268 CNS; EKVX NSCLC; OVCAR-8 ovarian; MDA-MB-435; SK-MEL-2 melanoma; A549 NSCLC; UACC-62 melanoma; A498 renal; K-562 leukemia.
What all share (assay): DTP human tumour cell line panel, 48 h

Each structure is given as a SMILES string. Several values for one entry are separate records, joined by “and”; a condition that tells them apart may be missing. Identical values can stand only once.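 Tested at 5 concentrations; 48 h exposure; 96-well plates; endpoints linearly interpolated, else capped at highest concentration. GI50 is the concentration that inhibits growth by half. TGI marks complete inhibition of growth.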

Turning to `CN(C)C(=S)SCC(=O)Nc1ccccc1`, the TGI in the experiment on OVCAR-5 ovarian, in the experiment on SF-268 CNS, with EKVX NSCLC, in the experiment with OVCAR-8 ovarian, in the experiment on MDA-MB-435 and in the experiment with SK-MEL-2 melanoma was above 100 µM each time. For the same compound, the TGI in the experiment with A549 NSCLC, in the experiment on UACC-62 melanoma, with A498 renal and in the experiment with K-562 leukemia was above 100 µM each time.
In the case of `COC(=O)CSSCc1ccc([N+](=O)[O-])cc1`, the TGI was 35.6 µM in the experiment on OVCAR-5 ovarian; 45.9 µM in the experiment with SF-268 CNS; 69.2 µM in the experiment with EKVX NSCLC; 82.1 µM with OVCAR-8 ovarian; 31.3 µM in the experiment with MDA-MB-435; 42.4 µM in the experiment with SK-MEL-2 melanoma. Moreover, the TGI in the experiment on A549 NSCLC is 88.8 µM; in the experiment on UACC-62 melanoma, 31.5 µM; with A498 renal, 45.7 µM; with K-562 leukemia it was above 100 µM.
Take `CC[n+]1c(/C=C/C=C2\N(C)c3ccccc3C2(C)C)sc2ccccc21`: the GI50 was 4820 nM in the experiment with OVCAR-5 ovarian; 4430 nM in the experiment with SF-268 CNS; 4.39 µM in the experiment on EKVX NSCLC; 4310 nM in the experiment with OVCAR-8 ovarian; 3980 nM in the experiment with MDA-MB-435; 5230 nM with SK-MEL-2 melanoma. In addition, the GI50 is 4770 nM in the experiment with A549 NSCLC, 4030 nM with UACC-62 melanoma, 5040 nM with A498 renal and 4340 nM in the experiment on K-562 leukemia. Also, the TGI in the experiment with OVCAR-5 ovarian was determined as 11.7 µM; in the experiment on SF-268 CNS, 8.92 µM; in the experiment on EKVX NSCLC, 12.8 µM; with OVCAR-8 ovarian, 8.54 µM; with MDA-MB-435 it was 7.66 µM; with SK-MEL-2 melanoma, 11 µM. Moreover, the TGI is 10 µM with A549 NSCLC, 8.32 µM with UACC-62 melanoma, 12 µM in the experiment on A498 renal and 9.43 µM with K-562 leukemia.
`O=C(Nc1nc2ccccc2s1)Nc1ccc([N+](=O)[O-])cc1Cl`: the GI50 with OVCAR-5 ovarian is 10400 nM; in the experiment on SF-268 CNS, 4490 nM; with EKVX NSCLC it was 11 µM; in the experiment on OVCAR-8 ovarian, 2130 nM; with MDA-MB-435, 3560 nM; in the experiment on SK-MEL-2 melanoma, 12700 nM. Also, the GI50 in the experiment on A549 NSCLC is 2170 nM; with UACC-62 melanoma it was 3100 nM; in the experiment on A498 renal, 5150 nM; in the experiment on K-562 leukemia, 3480 nM. For the same compound, the TGI came out at 25.7 µM with OVCAR-5 ovarian; 18.6 µM in the experiment on SF-268 CNS; 45.1 µM in the experiment on EKVX NSCLC; 4.99 µM in the experiment on OVCAR-8 ovarian; 14.2 µM in the experiment on MDA-MB-435; 26.9 µM in the experiment with SK-MEL-2 melanoma. The TGI in the experiment on A549 NSCLC was 5.7 µM; in the experiment with UACC-62 melanoma, 8.94 µM; with A498 renal, 12.5 µM; in the experiment on K-562 leukemia, above 100 µM.
Regarding `CC(=O)[O][Hg][c]1c(C)c(C)cc(C)c1C`, the GI50 in the experiment on OVCAR-5 ovarian is 1940 nM; in the experiment with SF-268 CNS it was 825 nM; in the experiment with EKVX NSCLC it was 1.25 µM; in the experiment on OVCAR-8 ovarian, 1770 nM; in the experiment on MDA-MB-435, 1270 nM; in the experiment on SK-MEL-2 melanoma, 1530 nM. Also, the GI50 is 5550 nM with A549 NSCLC, 1690 nM in the experiment with UACC-62 melanoma, 2090 nM with A498 renal and 743 nM in the experiment with K-562 leukemia. Moreover, the TGI in the experiment with OVCAR-5 ovarian was 3.84 µM; in the experiment on SF-268 CNS, 2.25 µM; with EKVX NSCLC it was 3.11 µM; in the experiment on OVCAR-8 ovarian, 3.23 µM; with MDA-MB-435, 2.74 µM; in the experiment on SK-MEL-2 melanoma, 3.3 µM. Also, the TGI in the experiment on A549 NSCLC was 15 µM; in the experiment with UACC-62 melanoma it was 4.59 µM; with A498 renal, 4.38 µM; with K-562 leukemia, 11 µM.
On to `Cc1cc([N+](=O)[O-])c2ccccc2[n+]1[O-]`, for which the GI50 in the experiment on OVCAR-5 ovarian is 2020 nM and 2260 nM; with SF-268 CNS, 396 nM and 405 nM; in the experiment with EKVX NSCLC it was 2.77 µM; in the experiment on OVCAR-8 ovarian, 683 nM and 688 nM; in the experiment with MDA-MB-435, 336 nM and 286 nM; with SK-MEL-2 melanoma, 209 nM and 212 nM. For the same compound, the GI50 with A549 NSCLC is 245 nM and 204 nM; with UACC-62 melanoma, 252 nM and 254 nM; in the experiment on A498 renal, 185 nM and 144 nM; in the experiment with K-562 leukemia, 156 nM and 99.1 nM. The TGI in the experiment on OVCAR-5 ovarian was 7.21 µM and 7.12 µM; in the experiment on SF-268 CNS, 5.84 µM and 5.82 µM; in the experiment with EKVX NSCLC it was 12 µM; in the experiment on OVCAR-8 ovarian, 3.88 µM and 4.86 µM; with MDA-MB-435 it was 1.58 µM and 1.2 µM; in the experiment with SK-MEL-2 melanoma, 0.471 µM and 0.404 µM. Also, the TGI in the experiment with A549 NSCLC is 0.807 µM and 0.905 µM; with UACC-62 melanoma, 0.89 µM and 0.833 µM; in the experiment on A498 renal, 0.464 µM and 0.416 µM; in the experiment with K-562 leukemia it was 4.28 µM and 3.04 µM.
For `O=S(=O)(c1cnccc1N1CCN(CCO)CC1)N1CCCC1`, the TGI in the experiment with OVCAR-5 ovarian, in the experiment with SF-268 CNS, in the experiment with EKVX NSCLC, with OVCAR-8 ovarian, with MDA-MB-435 and in the experiment with SK-MEL-2 melanoma was above 100 µM in each case. Also, the TGI with A549 NSCLC, with UACC-62 melanoma, in the experiment on A498 renal and with K-562 leukemia was above 100 µM throughout.
In the case of `C#CCOc1ccc2ncnc(Nc3ccc(NC(=O)C=C)cc3)c2c1`, the GI50 in the experiment on OVCAR-5 ovarian is above 100000 nM; in the experiment on SF-268 CNS, 71300 nM; with EKVX NSCLC, above 100 µM; in the experiment with OVCAR-8 ovarian, 45800 nM; in the experiment on MDA-MB-435, 36200 nM; in the experiment with SK-MEL-2 melanoma it was above 100000 nM. Further, the GI50 in the experiment with A549 NSCLC was above 100000 nM; with UACC-62 melanoma, 47300 nM; in the experiment with A498 renal, above 100000 nM; with K-562 leukemia, 3380 nM. Moreover, the TGI in the experiment on OVCAR-5 ovarian, in the experiment with SF-268 CNS, in the experiment with EKVX NSCLC, in the experiment with OVCAR-8 ovarian, in the experiment on MDA-MB-435 and in the experiment on SK-MEL-2 melanoma was above 100 µM each time. The TGI in the experiment on A549 NSCLC was above 100 µM; with UACC-62 melanoma, above 100 µM; in the experiment on A498 renal, above 100 µM; in the experiment on K-562 leukemia, 23.6 µM.
As for `O=c1[nH]cnc2c1nnn2CCCCCCCCCCCCn1nnc2c(=O)[nH]cnc21`, the TGI in the experiment with OVCAR-5 ovarian is above 100 µM; in the experiment on SF-268 CNS, 79.9 µM; in the experiment with EKVX NSCLC, above 82.5 µM; with OVCAR-8 ovarian, above 86.8 µM; with MDA-MB-435 it was above 100 µM; in the experiment with SK-MEL-2 melanoma, 51 µM. Also, the TGI was above 100 µM in the experiment with A549 NSCLC, above 78 µM in the experiment on UACC-62 melanoma, 53.6 µM in the experiment on A498 renal and above 100 µM with K-562 leukemia.
